Results reported in ChEMBL document CHEMBL1136383, “New fibrinolytic agents: benzothiophene derivatives as inhibitors of the t-PA-PAI-1 complex formation” (Bioorg Med Chem Lett, 2003).

target: Plasminogen activator inhibitor 1 (Homo sapiens, UniProt P05121); assay: Inhibitory activity against plasminogen activator inhibitor 1 (PAI-1) was evaluated by inhibition of tissue plasminogen activator/PAI-1 complex formation in t-PA-induced fibrin clot lysis assay
Sequence (P05121 whole entry): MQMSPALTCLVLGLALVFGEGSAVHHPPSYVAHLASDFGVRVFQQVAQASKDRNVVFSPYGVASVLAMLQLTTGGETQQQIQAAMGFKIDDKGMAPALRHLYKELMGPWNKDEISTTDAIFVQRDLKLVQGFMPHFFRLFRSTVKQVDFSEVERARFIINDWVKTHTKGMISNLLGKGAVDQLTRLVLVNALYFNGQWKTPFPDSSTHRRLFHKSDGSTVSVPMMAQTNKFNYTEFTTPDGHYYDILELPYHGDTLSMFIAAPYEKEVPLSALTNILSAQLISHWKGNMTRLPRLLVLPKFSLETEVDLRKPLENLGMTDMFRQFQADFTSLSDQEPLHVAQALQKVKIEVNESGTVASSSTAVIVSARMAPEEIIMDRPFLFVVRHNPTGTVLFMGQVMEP

SMILES | IC50 [nM]
CN(C)CCSc1ccc(/C=c2\[nH]c(=O)/c(=C/c3ccccc3)[nH]c2=O)s1 | 106000
O=C(O)/C(=C/c1sc2cc(OCc3ccc(-c4ccccc4)cc3)c(OCc3ccc(-c4ccccc4)cc3)cc2c1Oc1ccc(Oc2ccncc2)cc1)c1ccncc1 | 10700
Cc1cc(Oc2c(/C=C(/C(=O)O)c3ccncc3)sc3cc(OCc4ccc(-c5ccccc5)cc4)c(OCc4ccc(-c5ccccc5)cc4)cc23)ccc1Cl | 480
O=C(O)/C(=C/c1sc2cc(OCc3ccc(-c4ccccc4)cc3)c(OCc3ccc(-c4ccccc4)cc3)cc2c1Oc1ccc(F)c(F)c1)c1ccncc1 | 590
O=C(O)/C(=C/c1sc2cc(OCc3ccccc3-c3ccccc3)c(OCc3ccccc3-c3ccccc3)cc2c1Oc1ccc(Cl)cc1)c1ccncc1 | 10800
CN(C)CCSc1ccc(/C=c2\[nH]c(=O)/c(=C/c3ccccc3)[nH]c2=O)cc1 | 51000
Cc1cc(Oc2c(/C=C(/C(=O)O)c3ccncc3)sc3cc(OCc4ccc(-c5ccccc5)cc4)c(OCc4ccc(-c5ccccc5)cc4)cc23)cc(C)c1Cl | 1090
O=C(O)/C(=C/c1sc2cc(OCc3ccc(-c4ccccc4)cc3)c(OCc3ccc(-c4ccccc4)cc3)cc2c1Oc1ccc2ncccc2c1)c1ccncc1 | 6060
O=C(O)/C(=C/c1sc2cc(OCc3ccc(-c4ccccc4)cc3)c(OCc3ccc(-c4ccccc4)cc3)cc2c1Oc1ccc(-n2ccnc2)cc1)c1ccncc1 | 2910
O=C(O)/C(=C/c1sc2cc(OCc3ccc(S(=O)(=O)c4ccccc4)cc3)c(OCc3ccc(S(=O)(=O)c4ccccc4)cc3)cc2c1Oc1ccc(Cl)cc1)c1ccncc1 | 770
COc1ccc(/C=c2\[nH]c(=O)/c(=C/c3ccccc3)[nH]c2=O)cc1 | 59400
O=C(O)/C(=C/c1sc2cc(OCc3ccc(-c4ccccc4)cc3)c(OCc3ccc(-c4ccccc4)cc3)cc2c1Oc1ccc(Cl)nc1)c1ccncc1 | 2070
O=C(O)/C(=C/c1sc2cc(OCc3ccc(-c4ccccc4)cc3)c(OCc3ccc(-c4ccccc4)cc3)cc2c1Oc1cccnc1)c1ccncc1 | 2400
Cc1ccc(Oc2c(/C=C(/C(=O)O)c3ccncc3)sc3cc(OCc4ccc(-c5ccccc5)cc4)c(OCc4ccc(-c5ccccc5)cc4)cc23)cn1 | 2480
O=C(O)/C(=C/c1sc2cc(OCc3ccc(-c4ccccc4)cc3)c(OCc3ccc(-c4ccccc4)cc3)cc2c1Oc1ccc(Cl)c(F)c1)c1ccncc1 | 2280

Continued, values first:

IC50 [nM] | SMILES
470 | COC(=O)/C(=C/c1sc2cc(OCc3ccccc3)c(OCc3ccccc3)cc2c1Oc1ccc(Cl)cc1)c1ccncc1
140 | COc1ccc(-c2ccc(COc3cc4sc(/C=C(/C(=O)O)c5ccncc5)c(Oc5ccc(Cl)cc5)c4cc3OCc3ccc(-c4ccc(OC)cc4)cc3)cc2)cc1
220 | O=C(O)/C(=C/c1sc2cc(OCc3cccc(-c4ccccc4)c3)c(OCc3cccc(-c4ccccc4)c3)cc2c1Oc1ccc(Cl)cc1)c1ccncc1
270 | O=C(O)/C(=C/c1sc2cc(OCc3ccc(Cc4ccccc4)cc3)c(OCc3ccc(Cc4ccccc4)cc3)cc2c1Oc1ccc(Cl)cc1)c1ccncc1
39 | O=C(O)/C(=C/c1sc2cc(OCc3ccc(Sc4ccccc4)cc3)c(OCc3ccc(Sc4ccccc4)cc3)cc2c1Oc1ccc(Cl)cc1)c1ccncc1
240 | O=C(O)/C(=C/c1sc2cc(OCc3ccc(-c4ccccc4)cc3)c(OCc3ccc(-c4ccccc4)cc3)cc2c1Oc1cccc(F)c1)c1ccncc1
100 | O=C(O)/C(=C/c1sc2cc(OCc3ccc(Oc4ccccc4)cc3)c(OCc3ccc(Oc4ccccc4)cc3)cc2c1Oc1ccc(Cl)cc1)c1ccncc1
100 | O=C(O)/C(=C/c1sc2cc(OCc3ccc(-c4ccccc4)cc3)c(OCc3ccc(-c4ccccc4)cc3)cc2c1Oc1ccccc1)c1ccncc1
